Results on 7 molecules are retold here after patent publication US9428536B2, “Immunostimulatory G, U-containing oligoribonucleotides” (Zoetis Belgium SA, priority 2002, dated 2016).

A word on the EC50: it is the midpoint of the concentration-response curve.

What all share (assay type): cell-based
Data set [1] concerns human PBMC. The experiment in a line: Human PBMC IP-10 secretion, ELISA. Particulars: Table 4, DNA:RNA conjugates; human PBMC overnight; including DOTAP. As to the method: (§1) Human PBMC were cultured overnight in the presence of added DNA:RNA conjugate, with and without DOTAP. Culture supernatants were harvested and human TNF-α, IL-6, IL-12 p40, IP-10, and IFN-α were measured by ELISA using matched antibody pairs from BD-Pharmingen according to the manufacturer's protocol.
Background: ELISA stands for enzyme-linked immunosorbent assay.

Data set [2] concerns human PBMC. The experiment in a line: Human PBMC IL-6 secretion, ELISA. The settings on record: Table 4, DNA:RNA conjugates; human PBMC overnight; including DOTAP. As to the method: as §1
Data set [3] concerns human PBMC. In words: Human PBMC TNF-α secretion, ELISA. The settings on record: for TNF-α max / EC50: human PBMC overnight, including DOTAP; for EC50: read-out: TNF-α EC50. As to the method:
(§2) Human peripheral blood mononuclear cells (PBMCs) were isolated from healthy donors, plated at 3×10^5 cells/well, stimulated in vitro with various test and control immunostimulatory agents for 16 hours, and then analyzed by enzyme-linked immunosorbent assay (ELISA) using matched antibody pairs from BD-Pharmingen for secreted cytokines IL-12 p40 and TNF-α, performed according to the manufacturer's protocol. Also included were certain negative controls, including medium alone and DOTAP (10 μg/200 μl culture well; “Liposomes”) alone. The control immunostimulatory agents included the imidazoquinolone R-848 (2 μg/ml), lipopolysaccharide (LPS; 1 μg/ml), Pam3Cys (5 μg/ml), poly IC (50 μg/ml), and CpG DNA (50 μg/ml). These are reported ligands for TLR7, TLR4, TLR2, TLR3, and TLR9, respectively. Test immunostimulatory agents included the following RNA molecules, each at 50 μg/ml, with and without DOTAP (10 μg total “with Liposomes” and “without Liposomes”, respectively): GUGUUUAC alone; GUAGGCAC alone; GUGUUUAC in combination with GUAGGCAC; GUAGGA; GAAGGCAC; CUAGGCAC; CUCGGCAC; and CCCCCCCC. These RNA oligonucleotides each contained a phosphorothioate linkage between the penultimate and 3′ terminal nucleoside.
The experiments described in the preceding example were repeated with varied concentrations of RNA oligonucleotides in order to assess the dose-response behavior of human PBMCs to G,U-containing RNA oligonucleotides of the invention. A total of 10, 3 or 1 μg RNA was added to 10 μg DOTAP and then added to the 200 μl culture wells. After 16 hours IL-12 p40 and TNF-α ELISAs were performed as described in Example 1.
(§3) In order to investigate the possibility of using cholesteryl ester-modified RNA oligomer in place of RNA oligomer plus cationic lipid, RNA oligomer GUGUGUGU was prepared with (R 1058) and without (R 1006) a 3′ cholesteryl ester modification. These two RNA oligomers with and without DOTAP, were added over a range of concentrations to overnight cultures of human PBMC. Culture supernatants were harvested, and human TNF-α, IL-12 p40, and IFN-α were measured by ELISA using matched antibody pairs from BD-Pharmingen according to the manufacturer's protocol.
(§4) RNA oligomers GUGUGUGU, GUGUGUG, GUGUGU, GUGUG, GUGU, GUG, and GU, with and without DOTAP, were added over a range of concentrations to overnight cultures of human PBMC. Culture supernatants were harvested, and human TNF-α, IL-12 p40, and IFN-α were measured by ELISA using matched antibody pairs from BD-Pharmingen according to the manufacturer's protocol.
(§5) RNA oligomers, with and without DOTAP, were added over a range of concentrations to overnight cultures of human PBMC. Culture supernatants were harvested, and human TNF-α, IL-12 p40, and IFN-α were measured by ELISA using matched antibody pairs from BD-Pharmingen according to the manufacturer's protocol.
as §1
Human PBMC were cultured overnight in the presence of various concentrations (1, 3, and 10 μg/ml) of tRNA obtained from wheat germ, bovine, yeast, and E. coli sources, added to the culture medium with and without DOTAP. Culture supernatants were harvested and human TNF-α and IL-12 p40 were measured by ELISA using matched antibody pairs from BD-Pharmingen according to the manufacturer's protocol. […] In addition, E. coli tRNA at 3 and 10 μg/ml induced minor amounts of both cytokines even without DOTAP. […]
FIG. 10 depicts the responsiveness of human PBMC to stringent response factor (SRF). SRF is produced by rapidly growing bacteria (in this case Listeria monocytogenes) in rich media until their late log phase. The bacteria were pelleted and resuspended in an equal volume of PBS for 24 h. The mixture is centrifuged to remove the bacteria. […]

The next data set has as its target T1, human TLR7 (Homo sapiens, UniProt Q9NYK1).
T1 construct: All full-length TLR fragments were cloned into pGEM-T Easy vector; expressed in transfected cells; host or cells: 293 HEK cells (ATCC), transient electroporation with pcDNA3.1(-) TLR expression plasmid
T1 sequence (Q9NYK1 27-1049): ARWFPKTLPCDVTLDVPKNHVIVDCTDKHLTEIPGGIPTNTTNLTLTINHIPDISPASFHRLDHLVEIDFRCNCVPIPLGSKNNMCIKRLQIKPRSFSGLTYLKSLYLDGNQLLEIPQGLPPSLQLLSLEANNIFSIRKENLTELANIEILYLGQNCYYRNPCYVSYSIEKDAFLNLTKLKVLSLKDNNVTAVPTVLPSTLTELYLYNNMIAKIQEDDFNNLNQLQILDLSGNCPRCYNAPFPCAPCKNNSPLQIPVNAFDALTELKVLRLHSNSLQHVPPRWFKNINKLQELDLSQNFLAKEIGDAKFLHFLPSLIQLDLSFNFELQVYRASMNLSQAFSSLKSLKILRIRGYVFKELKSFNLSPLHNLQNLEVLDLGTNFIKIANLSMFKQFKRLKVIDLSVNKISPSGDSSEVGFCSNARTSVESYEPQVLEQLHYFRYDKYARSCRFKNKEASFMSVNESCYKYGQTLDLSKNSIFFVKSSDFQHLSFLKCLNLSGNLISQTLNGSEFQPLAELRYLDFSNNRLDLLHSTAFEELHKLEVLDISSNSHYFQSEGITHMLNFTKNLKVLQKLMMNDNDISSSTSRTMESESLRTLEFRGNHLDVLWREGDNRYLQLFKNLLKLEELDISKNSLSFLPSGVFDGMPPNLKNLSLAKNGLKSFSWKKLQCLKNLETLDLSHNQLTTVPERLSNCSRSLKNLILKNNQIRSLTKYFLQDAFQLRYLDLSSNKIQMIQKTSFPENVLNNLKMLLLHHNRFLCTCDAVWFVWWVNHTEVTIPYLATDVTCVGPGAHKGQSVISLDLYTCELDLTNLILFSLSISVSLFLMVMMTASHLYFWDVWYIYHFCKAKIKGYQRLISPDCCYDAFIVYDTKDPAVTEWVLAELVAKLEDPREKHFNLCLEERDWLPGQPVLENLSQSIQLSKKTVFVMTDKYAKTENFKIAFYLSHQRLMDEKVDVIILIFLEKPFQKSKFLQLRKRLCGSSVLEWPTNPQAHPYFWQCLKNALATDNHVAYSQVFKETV
In words: NF-κB luciferase reporter in 293 HEK cells transfected with human TLR7. Particulars: for human TLR7 response to modified guanosine ribonucleosides: FIG. 18. As to the method:
FIG. 12 depicts the responsiveness of human TLR7 and human TLR8 to ribonucleosides. It was determined that the response by human PBMC to RNA or RVC was mediated by TLR7 or TLR8 and further that the response could be driven by ribonucleosides only. Human 293 cells were either mock-transfected or transfected with human TLR7 or human TLR8 and monitored for responsiveness to ribonucleosides. The open reading frames of human TLR7 (hTLR7) and human TLR8 (hTLR8) were amplified by PCR from a cDNA library of human PBMC using the following primers pairs: for TLR7, 5′-[…]-3′ (SEQ ID NO:15) and 5′-[…]-3′ (SEQ ID NO:16); and for TLR8, 5′-[…]-3′ (SEQ ID NO:17) and 5′-[…]-3′ (SEQ ID NO:18). The sequence information for primer selection was obtained from Genbank accession numbers AF240467 and AF245703. All full-length TLR fragments were cloned into pGEM-T Easy vector (Promega, Mannheim, Germany), excised with NotI, cloned into the expression vector pcDNA 3.1(−) (Invitrogen, Karlsruhe, Germany) and sequenced. Sequences of the coding region of hTLR7 and hTLR8 correspond to the accession numbers AF240467 (SEQ ID NO:25) and AF245703, respectively (SEQ ID NO:29).
For monitoring transient NF-κB activation, 3×10^6 293 HEK cells (ATCC, VA, USA) were electroporated at 200 volt and 960 μF with 1 μg TLR expression plasmid, 20 ng NF-κB luciferase reporter-plasmid and 14 μg of pcDNA3.1(−) plasmid as carrier in 400 μl RPMI medium supplemented with 25% fetal bovine serum (FCS). Cells were seeded at 10^5 cells per well and after over night culture stimulated with R-848 (denoted in FIG. 12 as X; commercially synthesized by GLSynthesis Inc., Worcester, Mass., USA), RVCs or ribonucleosides for a further 7 hours. Stimulated cells were lysed using reporter lysis buffer (Promega, Mannheim, Germany), and lysate was assayed for luciferase activity using a Berthold luminometer (Wildbad, Germany).

Data set [4] relates to human PBMC. The experiment in a line: Human PBMC IFN-α secretion, ELISA. The settings on record: Table 2, oligomer length, human PBMC overnight, including DOTAP. The procedure:
as §3, §4, §5
In like manner, an all-phosphodiester 40-mer capable of forming a stem-loop structure and having a base sequence as provided by 5′-[…]-3′ (R 1041; SEQ ID NO:10) was synthesized and tested in overnight culture with human PBMC.

The test system of data set [5] is human PBMC. The experiment in a line: Human PBMC IL-12 p40 secretion, ELISA. The settings on record: Table 2, oligomer length; human PBMC overnight; including DOTAP. As to the method: as §2
The experiments described in the preceding example were repeated with varied concentrations of RNA oligonucleotides in order to assess the dose-response behavior of human PBMCs to G,U-containing RNA oligonucleotides of the invention. A total of 10, 3 or 1 μg RNA was added to 10 μg DOTAP and then added to the 200 μl culture wells. After 16 hours IL-12 p40 and TNF-α ELISAs were performed as described in Example 1. […]
RNA oligomers GUGUGUGU, GUGUGUG, GUGUGU, GUGUG, GUGU, GUG, and GU, with and without DOTAP, were added over a range of concentrations to overnight cultures of human PBMC. Culture supernatants were harvested, and human TNF-α, IL-12 p40, and IFN-α were measured by ELISA using matched antibody pairs from BD-Pharmingen according to the manufacturer's protocol. […]

Oligonucleotides are written 5' to 3', each unit as a sugar letter and its base; * is a phosphorothioate linkage, no mark a phosphodiester; rarer units and linkages stand in square brackets, end groups in braces. Plain capitals give the bases only. d = 2'-deoxy (DNA); r = 2'-OH (RNA)

In the data set with human PBMC [1], “G*U*G*U*G*U*G*U*dT*dT*dT*dT*dT*dT (rG*rU*rG*rU*rG*rU*rG*rU*dT*dT*dT*dT*dT*dT) [R 1062]” returned an EC50 of 100 nM and an IP-10 max of 400 pg/mL. In the data set with human PBMC [2], the response was half-maximal at 400 nM (EC50) and the IL-6 max is 28000 pg/mL. Moreover, in the data set on human PBMC [3] (Table 4, DNA:RNA conjugates), the TNF-α max stood at 80000 pg/mL and the EC50 turned out to be 300 nM.
On to `Nc1nc2c(nc(Br)n2[C@@H]2O[C@H](CO)[C@@H](O)[C@H]2O)c(=O)[nH]1` [8-bromo-guanosine, reference compound], for which the “human TLR7 response to modified guanosine ribonucleosides” value (“human TLR7 response” for short) at human TLR7 is on record as “responded mildly”.
Consider “dT*dT*dT*dT*dT*G*U*G*U*G*U*G*U (dT*dT*dT*dT*dT*rG*rU*rG*rU*rG*rU*rG*rU) [R 1063]”, for which, in the data set on human PBMC [1], the EC50 was determined as 100 nM and the IP-10 max worked out at 250 pg/mL. In the data set with human PBMC [2], this molecule came in with an EC50 of 800 nM and an IL-6 max of 28000 pg/mL. Also, in the data set with human PBMC [3] (Table 4, DNA:RNA conjugates), the TNF-α max was determined as 60000 pg/mL and the EC50 was determined as 300 nM.
Take “dG*dG*dG*dG_dG_G*U*G*U*G*U*G*U (dG*dG*dG*dGdGrG*rU*rG*rU*rG*rU*rG*rU) [R 1061]”: in the data set on human PBMC [1], the EC50 amounted to 1100 nM and the IP-10 max is 180 pg/mL. In the data set with human PBMC [2], this molecule had an EC50 of over 20000 nM and an IL-6 max of 10000 pg/mL. Moreover, in the data set on human PBMC [3] (Table 4, DNA:RNA conjugates), the TNF-α max came to 20000 pg/mL and the EC50 was found to be 4300 nM.
On to `Nc1nc2c(ncn2[C@H]2C[C@H](O)[C@@H](CO)O2)c(=O)[nH]1` [deoxy form of guanosine], for which, at human TLR7, the “human TLR7 response” value was “responded mildly”.
Consider `Nc1nc2c(ncn2[C@@H]2O[C@H](CO)[C@@H](O)[C@H]2O)c(=O)[nH]1` [guanosine], for which, on human TLR7 (FIG. 12, transient transfectants, 7 hours stimulation), the “response of TLR7 transfectants (NF-κB luciferase)” value is reported as “responded”. In addition, the “responsiveness of TLR7 to ribonucleosides and mixtures of two” value at human TLR7 (FIG. 13) is “responded best”. On human TLR7, the “human TLR7 response” value is listed as “responsive”. The “stimulation of PBMC to produce TNF” value in the data set on human PBMC [3] (Example 14, in the absence of vanadate) is listed as “effective”.
Molecule GUGUGU [R 1049] showed an IFN-α max in the data set on human PBMC [4] of 3400 pg/mL. Moreover, the EC50 in the data set on human PBMC [4] (read-out: IFN-α EC50) is 4800 nM. Besides, in the data set with human PBMC [5], the EC50 was 2100 nM and the “IL-12 p40 max” value amounted to 8000 pg/mL. Moreover, in the data set on human PBMC [3] (Table 2, oligomer length), the TNF-α max is 30000 pg/mL and the EC50 worked out at 6700 nM.
